SMILES strings stand for the structures.

One test relates to rat. Briefly: Low-intensity tail flick test (rat). Type of test: in vivo. The settings on record: for ED50: po, peroral, at time of maximum efficacy. How it is done:
Method II. Low-Intensity Tail Flick Test (Rat)
In the low-intensity tail flick test, the determination of the antinociceptive effect of the compounds according to the invention towards an acute noxious thermal stimulus is carried out by measuring the withdrawal reflex of the rat tail (tail flick) in response to a radiant heat beam (analgesia meter; model 2011 of the company Rhema Labortechnik, Hofheim, Germany) according to the method described by D'Amour and Smith (J. Pharm. Exp. Ther. 72, 74 79 (1941). To this end, the rats were placed in a plexiglas restrainer, and a low-intensity radiant heat beam (48° C.) was focused onto the dorsal surface of the tail root. The stimulus intensity was adjusted to result in a mean pre-drug control withdrawal latency of about 7 s, thus also allowing a supraspinal modulation of the spinally mediated acute nociceptive reflex. A cutoff time of 30 s was applied to avoid tissue damage. Male Sprague-Dawley rats (Janvier, Le Genest St. Isle, Frankreich) with weights of 200-250 g were used. 10 rats were used per group. Before administration of a compound according to the invention, the animals were pre-tested twice in the course of five minutes and the mean of these measurements was calculated as the pre-test mean. The antinociceptive effect was determined at 20, 40 and 60 min after peroral compound administration. The antinociceptive effect was calculated based on the increase in the tail withdrawal latency according to the following formula and is expressed as percentage of the maximum possible effect (MPE [%]): MPE=[(T1−T0)/(T2−T0)]*100
In this, T0 is the control latency time before and T1 the latency time after administration of the compound, T2 is the cutoff time and MPE is the maximum possible effect. Employing variant analysis (repeated measures ANOVA) allowed testing of statistically significant differences between the compounds according to the invention and the vehicle group. The significance level was set to p≦0.05. To determine the dose dependency, the particular compound according to the invention was administered in 3-5 logarithmically increasing doses, including a threshold dose and a maximum effective dose, and the ED50 values were determined with the aid of regression analysis. The ED50 calculation was performed at the time of maximum efficacy (usually 20 min after administration of the compounds).

The next test addresses T1, KCNQ2/3 channels (Homo sapiens, UniProt O43525+O43526).
T1 construct: expressed in transfected cells; host or cells: CHO-K1 cells kept under selection antibiotics
Description: Fluorescence assay using a voltage sensitive dye (fluorimetry). The format is cell-based. Conditions: CHO-K1 cells expressing KCNQ2/3 channels; for Emax: relative to retigabine (RTG) = 100%, read-out: Fluorimetry % efficacy (RTG = 100%). As for the experimental part: Pharmacological Experiments Method I. Fluorescence Assay Using a Voltage Sensitive Dye (Fluorimetry)
[…] CHO-K1 cells expressing KCNQ2/3 channels are cultivated adherently at 37° C., 5% CO2 and 95% humidity in cell culture bottles (e.g. 80 cm^2 TC flasks, Nunc) with DMEM-high glucose (Sigma Aldrich, D7777) including 10% FCS (PAN Biotech, e.g. 3302-P270521) or alternatively MEM Alpha Medium (1×, liquid, Invitrogen, #22571), 10% fetal calf serum (FCS) (Invitrogen, #10270-106, heat-inactivated) and the necessary selection antibiotics.
Before being sown out for the measurements, the cells are washed with 1×DPBS buffer Ca^2+/Mg^2+-free (e.g. Invitrogen, #14190-094) and detached from the bottom of the culture vessel by using Accutase (PAA Laboratories, #L11-007) (incubation with Accutase for 15 min at 37° C.). The cell number is determined using a CASY™ cell counter (TCC, Schärfe System). Depending on the optimal density for each individual cell line, 20,000-30,000 cells/well/100 μl are seeded onto 96-well Corning™ CellBIND™ assay plates (Flat Clear Bottom Black Polystyrene Microplates, #3340). Freshly seeded cells are then left to settle for one hour at room temperature, followed by incubation for 24 hours at 37° C., 5% CO2 and 95% humidity.
The voltage-sensitive fluorescent dye from the Membrane Potential Assay Kit (Red™ Bulk format part R8123 for FLIPR, MDS Analytical Technologies™) is prepared by dissolving the contents of one vessel Membrane Potential Assay Kit Red Component A in 200 ml of extracellular buffer (ES buffer, 120 mM NaCl, 1 mM KCl, 10 mM HEPES, 2 mM CaCl2, 2 mM MgCl2, 10 mM glucose; pH 7.4). After removal of the nutrient medium, the cells are washed once with 200 μl of ES buffer, then loaded for 45 min at room temperature in 100 μl of dye solution in the dark.
Fluorescence measurements are carried out in a BMG Labtech FLUOstar™, BMG Labtech NOVOstar™ or BMG Labtech POLARstar™ instrument (525 nm excitation, 560 nm emission, Bottom Read mode). After incubation with the dye, 50 μl of the test substances in the desired concentrations, or 50 μl of ES buffer for control purposes, are applied to the wells of the assay plate and incubated for 30 min at room temperature while being shielded from light. The fluorescence intensity of the dye is then measured for 5 min and the fluorescence value F1 of each well is thus determined at a given, constant time. 15 μl of a KCl solution are then added to each well (final concentration of potassium ions 92 mM). The change in fluorescence intensity is subsequently monitored until all the relevant values have been obtained (mainly 5-30 min). At a given time post KCl application, a fluorescence value F2 is determined, in this case at the time of the fluorescence peak.
For calculation, the fluorescence intensity F2 is corrected for the fluorescence intensity F1, and the activity (ΔF/F) of the target compound on the potassium channel is determined as follows:
In order to determine whether a substance has agonistic activity,
A substance has an agonistic activity on the potassium channel if
[formula] increases dose dependently.
Calculations of EC50 and IC50 values are carried out with the aid of ‘Prism v4.0’ software (GraphPad Software™).

By EC50 is commonly meant the concentration at which the effect is half-maximal. The low end stands for greater potency, the high end for weaker potency. Take `Cc1c(C(=O)NCc2cccc(F)c2)c(=S)n(C)c2cc(C(F)(F)F)ccc12` [Example 3, N-[(3-fluorophenyl)-methyl]-1,4-dimethyl-2-thioxo-7-(trifluoromethyl)-1H-quinoline-3-carboxylic acid amide]: in the test on rat (dose 10.00 mg/kg), the “Low intensity tail flick, rat, peroral, MPE (dose)” value is 24 (10.00) %. Besides, on KCNQ2/3 channels, a half-maximal effect (EC50) was put at 124 nM and the Emax turned out to be 101%.
One may read the ED50 as the dose that gives a 50% effect, or the effect in half of the subjects. A high value points to weaker potency. `Cc1c(C(=O)NCc2ccc(F)cc2)c(=O)n(C)c2cc(C(F)(F)F)ccc12` [Example 6, N-[(4-fluorophenyl)-methyl]-1,4-dimethyl-2-oxo-7-(trifluoromethyl)-1H-quinoline-3-carboxylic acid amide] returned an ED50 in the test on rat of 0.6 mg/kg. Moreover, on KCNQ2/3 channels, the response was half-maximal at 189 nM (EC50) and the Emax was determined as 169%.
As to `COCCn1c(=O)c(C(=O)NCc2cccc(F)c2)c(C)c2ccc(C(F)(F)F)cc21` [Example 4, N-[(3-fluorophenyl)-methyl]-1-(2-methoxy-ethyl)-4-methyl-2-oxo-7-(trifluoromethyl)-1H-quinoline-3-carboxylic acid amide], the ED50 with rat worked out at 2.8 mg/kg. Moreover, at KCNQ2/3 channels, the EC50 turned out to be 850 nM and the Emax was found to be 195%.
Turning to `COCCn1c(=O)c(C(=O)NCc2ccc(F)cc2)c(C)c2ccc(C(F)(F)F)cc21` [Example 7, N-[(4-fluorophenyl)-methyl]-1-(2-methoxy-ethyl)-4-methyl-2-oxo-7-(trifluoromethyl)-1H-quinoline-3-carboxylic acid amide], in the test with rat (dose 3.16 mg/kg), the “Low intensity tail flick, rat, peroral, MPE (dose)” value was 47 (3.16) %. In addition, on KCNQ2/3 channels, the 50% effective concentration (EC50) worked out at 598 nM and the Emax was found to be 146%.
For the compound `Cc1c(C(=O)NCc2cccc(F)c2)c(=O)n(C)c2cc(C(F)(F)F)ccc12` [Example 1, N-[(3-fluorophenyl)-methyl]-1,4-dimethyl-2-oxo-7-(trifluoromethyl)-1H-quinoline-3-carboxylic acid amide], the ED50 in the test on rat came out at 2.3 mg/kg. For the same compound, on KCNQ2/3 channels, the EC50 worked out at 245 nM and the Emax worked out at 177%.
For `CCCn1c(=O)c(C(=O)NCc2cccc(F)c2)c(C)c2ccc(C(F)(F)F)cc21` [Example 11, N-[(3-fluorophenyl)-methyl]-4-methyl-2-oxo-1-propyl-7-(trifluoromethyl)-1H-quinoline-3-carboxylic acid amide], at KCNQ2/3 channels, the EC50 is 406 nM and the Emax was found to be 167%.
